From PubChem BioAssay (NCI)
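Following 48 hours of exposure in 96-well plates, responses at five concentrations were used to interpolate endpoints linearly. TGI is the concentration that stops growth completely.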

Assays:
Assay in all cases: DTP human tumour cell line panel, 48 h
[1] = tested on: SR leukemia
[2] = tested on: NCI-H522 lung
[3] = tested on: MDA-MB-231 breast
[4] = tested on: HOP-62 NSCLC
[5] = tested on: CAKI-1 renal
[6] = tested on: NCI-H226 lung
[7] = tested on: KM12 colon
[8] = tested on: SF-539 CNS
[9] = tested on: SF-268 CNS
[10] = tested on: SK-MEL-28 melanoma
[11] = tested on: NCI-H460 lung
[12] = tested on: NCI-H23 lung
[13] = tested on: MDA-N
[14] = tested on: SN12C renal
[15] = tested on: HCC-2998 colon
[16] = tested on: SK-OV-3 ovarian
[17] = tested on: MOLT-4 leukemia
[18] = tested on: LOX IMVI melanoma

SMILES	TGI [1]	TGI [2]	TGI [3]	TGI [4]	TGI [5]	TGI [6]	TGI [7]	TGI [8]	TGI [9]	TGI [10]	TGI [11]	TGI [12]	TGI [13]	TGI [14]	TGI [15]	TGI [16]	TGI [17]	TGI [18]
N#Cc1ccc(/C=C2\Cc3ccccc3C2=O)cc1	> 100 µM	> 100 µM	> 100 µM	> 100 µM	> 100 µM	> 100 µM	> 100 µM	> 100 µM	> 100 µM	> 100 µM	> 100 µM	> 100 µM	> 100 µM	> 100 µM	> 100 µM	> 100 µM	> 100 µM	
COC[C@@H](N=Cc1ccc(OC)cc1)C(C)C	> 100 µM	> 100 µM		> 100 µM	> 100 µM		> 100 µM		> 100 µM	> 100 µM	> 100 µM	> 100 µM	> 100 µM	> 100 µM		> 100 µM	> 100 µM	> 100 µM
C[N+](C)([O-])Cc1cccc(NC(=O)c2ccc(C(=O)Nc3cccc(C[N+](C)(C)[O-])c3)cc2)c1	> 100 µM	> 100 µM	> 100 µM	> 100 µM	> 100 µM	> 100 µM	> 100 µM	> 100 µM	> 100 µM	> 100 µM	> 100 µM	> 100 µM		> 100 µM	> 100 µM	> 100 µM	> 100 µM	> 100 µM
CCOC(=O)C1(C/C=C\CBr)CCCCCCC1=O (stereo not drawn)		> 100 µM	> 100 µM	> 100 µM	> 100 µM	> 100 µM	> 100 µM	> 100 µM	> 100 µM	> 100 µM		> 100 µM	> 100 µM	> 100 µM		> 100 µM	> 100 µM	> 100 µM
CC(C)(C)OC(=O)NCCNC(=O)OCc1ccccc1	> 100 µM	> 100 µM		> 100 µM	> 100 µM	> 100 µM	> 100 µM	> 100 µM	> 100 µM	> 100 µM	> 100 µM	> 100 µM	> 100 µM	> 100 µM	> 100 µM	> 100 µM	> 100 µM	
Cc1ccc(-n2cc(-c3ccc(Cl)cc3)c3c(NNC(=S)NCc4ccccc4)ncnc32)cc1	21.5 µM	13.2 µM	59.5 µM	85.4 µM	29.1 µM	> 100 µM	20 µM	30.7 µM	> 100 µM	> 100 µM	12.4 µM	60.4 µM	> 100 µM	24.3 µM		82 µM	> 100 µM	22.8 µM
O=C1c2ccccc2C(=O)c2c1c1cc(O)ccc1n2Cc1ccc(Cl)cc1Cl	> 100 µM		17.5 µM	9.88 µM	14.4 µM	31.1 µM	> 100 µM	14.7 µM	29.7 µM	36.1 µM	11.8 µM	19.9 µM	38.7 µM	16.3 µM		13.8 µM	43.4 µM	11.4 µM
Cc1c2cccc-2c(N(C)C)cc2c1[nH]c1ccccc12	3.98 µM		23.8 µM	15.1 µM	32.7 µM	21.8 µM	7.98 µM	4.31 µM	16.7 µM	6.84 µM	32.2 µM	32.3 µM	22.4 µM	20.2 µM		15.1 µM	16.9 µM	15.3 µM
N#C/C(=C/NC(=S)Nc1ccc(S(N)(=O)=O)cc1)C(N)=O	> 100 µM	> 100 µM		> 100 µM	> 100 µM		> 100 µM	> 100 µM	> 100 µM	> 100 µM	> 100 µM	> 100 µM	> 100 µM	> 100 µM	> 100 µM	> 100 µM	> 100 µM	
CCCCCCc1cc2cc(C(=O)Nc3cccc(C(F)(F)F)c3)c(=N)oc2cc1O	4.37 µM	2.67 µM	7.69 µM	5.03 µM	11.5 µM	3.52 µM	10.3 µM	3.59 µM	19.1 µM	27.6 µM	> 32.1 µM	1.76 µM		3.86 µM	15.8 µM	10.1 µM	4.19 µM	3.09 µM
COC(=O)c1cc(CNCCc2c[nH]c3ccccc23)on1	> 100 µM	73.5 µM		> 100 µM	> 100 µM	> 100 µM	> 100 µM	> 100 µM	> 100 µM	> 100 µM	> 100 µM	> 100 µM	> 100 µM	> 100 µM	> 100 µM	> 100 µM	> 100 µM	> 100 µM
COc1c(-c2ccc3c(c2)OCO3)oc2cc3c(c(OC)c2c1=O)OCO3		52.6 µM	> 100 µM	34.9 µM	62.4 µM	42.5 µM	65.1 µM	34.8 µM	44.2 µM	> 100 µM	28 µM	53.5 µM	44.4 µM	47.1 µM	87.4 µM	35.7 µM	> 100 µM	32.1 µM
CCCCCCCCCCCCCCCCCc1nc(C#N)c(N)o1	33.3 µM		96.5 µM	> 100 µM	> 100 µM		> 100 µM		> 100 µM	> 100 µM			> 100 µM	> 100 µM		> 100 µM	> 100 µM	> 100 µM
O=S(=O)(N1CCCCN(S(=O)(=O)C(F)(F)F)CCCN(S(=O)(=O)C(F)(F)F)CCCN(S(=O)(=O)C(F)(F)F)CCCCN(S(=O)(=O)C(F)(F)F)CCCN(S(=O)(=O)C(F)(F)F)CCC1)C(F)(F)F		> 100 µM	> 100 µM	> 100 µM	> 100 µM	> 100 µM	> 100 µM	84.1 µM	> 100 µM	> 100 µM	> 100 µM	> 100 µM	> 100 µM	> 100 µM	> 100 µM	> 100 µM	> 100 µM	> 100 µM
